The target in one data set is T1, COX-1 (Ovis aries, UniProt P05979).
T1 construct: purchased Cayman
T1 sequence (P05979 25-600): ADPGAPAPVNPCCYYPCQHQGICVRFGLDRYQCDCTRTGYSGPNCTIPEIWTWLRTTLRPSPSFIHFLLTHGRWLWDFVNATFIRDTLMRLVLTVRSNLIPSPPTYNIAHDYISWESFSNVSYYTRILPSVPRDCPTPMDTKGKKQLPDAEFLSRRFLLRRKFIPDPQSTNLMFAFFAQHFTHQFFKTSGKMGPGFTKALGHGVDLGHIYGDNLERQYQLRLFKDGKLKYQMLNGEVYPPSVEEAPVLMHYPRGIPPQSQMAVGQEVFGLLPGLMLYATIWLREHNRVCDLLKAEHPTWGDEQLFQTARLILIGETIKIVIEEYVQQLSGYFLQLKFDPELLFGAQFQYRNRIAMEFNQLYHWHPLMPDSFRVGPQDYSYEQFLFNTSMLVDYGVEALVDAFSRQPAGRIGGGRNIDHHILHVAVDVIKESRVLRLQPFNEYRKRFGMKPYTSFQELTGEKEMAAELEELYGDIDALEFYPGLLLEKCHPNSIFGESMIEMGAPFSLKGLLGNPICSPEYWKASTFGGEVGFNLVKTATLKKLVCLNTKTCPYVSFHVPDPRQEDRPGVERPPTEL
Put plainly: COX (ovine) colorimetric inhibitor screening assay, COX-1. It is filed as biochemical. The conditions noted are these: for IC50: ovine COX-1, colorimetric, triplicate, mean ± SD; for SI (IC50 for COX-1/IC50 for COX-2): selectivity index. As to the method: (§1) COX (ovine) Colorimetric Inhibitor Screening Assay (Cayman, Ann Arbor, MI, USA) was conducted to detect the peroxidase component of COX-1 and COX-2 according to the manufacturer’s instructions. The assay was performed in triplicate. Half maximal inhibitory concentration (IC50) data (µM) were expressed as mean ± SD.

The target of a further data set is T2, COX-2 (Ovis aries, UniProt P79208).
T2 construct: purchased Cayman
T2 sequence (P79208 17-603): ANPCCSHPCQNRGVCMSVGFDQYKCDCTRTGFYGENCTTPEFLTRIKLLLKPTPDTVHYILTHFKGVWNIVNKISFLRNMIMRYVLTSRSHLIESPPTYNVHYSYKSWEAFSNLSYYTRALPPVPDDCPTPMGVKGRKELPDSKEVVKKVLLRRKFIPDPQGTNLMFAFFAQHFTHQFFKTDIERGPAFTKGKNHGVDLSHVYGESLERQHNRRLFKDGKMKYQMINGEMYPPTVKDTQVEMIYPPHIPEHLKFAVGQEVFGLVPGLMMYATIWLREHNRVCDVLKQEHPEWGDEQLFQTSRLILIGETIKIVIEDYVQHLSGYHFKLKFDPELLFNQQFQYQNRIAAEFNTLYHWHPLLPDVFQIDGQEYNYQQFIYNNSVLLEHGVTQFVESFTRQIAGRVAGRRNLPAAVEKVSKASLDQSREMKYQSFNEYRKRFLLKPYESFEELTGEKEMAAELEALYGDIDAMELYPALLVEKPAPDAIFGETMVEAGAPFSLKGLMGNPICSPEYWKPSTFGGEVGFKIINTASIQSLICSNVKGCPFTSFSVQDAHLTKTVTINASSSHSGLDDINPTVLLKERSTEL
The experiment in a line: COX (ovine) colorimetric inhibitor screening assay, COX-2. Format: biochemical. The conditions noted are these: ovine COX-2, colorimetric, triplicate, mean ± SD. As for the experimental part: as §1

In data set [1] the test system is L929 mouse fibroblast (normal) cells. The experiment in a line: MTT cytotoxicity assay, L929 normal cells. Format: cell-based. The conditions noted are these: MTT, L929 mouse fibroblast cells, mean ± SD. As to the method:
A549 human lung adenocarcinoma and L929 mouse fibroblast cell lines were obtained from American Type Culture Collection (ATCC) (Manassas, VA, USA). Both cell lines were cultured, and drug treatments were carried out as previously reported.
MTT assay was conducted as previously explained in the literature with small modifications. Cisplatin was used as a positive control. The assay was performed in triplicate. IC50 data (µM) were expressed as mean ± SD.
On the technique in general: Formazan colour is commonly taken as a measure of viable cells.

With `O=C(Cc1c[nH]c2ccccc12)NN=Cc1ccc(N2CCCC2)cc1` [Compound 3a, 2-(1H-Indol-3-yl)-N′-[4-(pyrrolidin-1-yl)benzylidene]acetohydrazide], the melting point – broadly, the temperature of the solid-liquid transition – fell in the range of 302 to 303 °C. In addition, on COX-1, the IC50 (in general, the concentration that gives 50% inhibition) turned out to be 10.3 ± 0.35 µM and the “SI (IC50 for COX-1/IC50 for COX-2)” value was determined as 0.83. The same compound had a half-inhibitory concentration (IC50) on COX-2 of 12.5 ± 0.71 µM. It took 17.3 ± 2.08 µM to reach half-maximal inhibition in data set [1] (IC50).
In the case of `O=C(Cc1c[nH]c2ccccc12)NN=Cc1ccc(N2CCCCC2)cc1` [Compound 3c, 2-(1H-Indol-3-yl)-N′-[4-(piperidin-1-yl)benzylidene]acetohydrazide], the melting point lay in the range of 265 to 266 °C. The same compound yielded an IC50 against COX-1 greater than 100 µM. The compound also yielded an IC50 on COX-2 greater than 100 µM. In data set [1], this compound showed a concentration for half-maximal inhibition (IC50) of 21.3 ± 0.58 µM.
Regarding `CN1CCN(c2ccc(C=NNC(=O)Cc3c[nH]c4ccccc34)cc2)CC1` [Compound 3d, 2-(1H-Indol-3-yl)-N′-[4-(4-methylpiperazin-1-yl)benzylidene]acetohydrazide], the melting point is 218 to 220 °C. In addition, at COX-1, the IC50 came out at 78.5 ± 8.5 µM and the “SI (IC50 for COX-1/IC50 for COX-2)” value is recorded as less than 0.79. Moreover, on COX-2, the concentration for half-maximal inhibition (IC50) is greater than 100 µM. In data set [1], this compound came in with a concentration for half-maximal inhibition (IC50) of 20 ± 1.73 µM.
The corresponding values for `CS(=O)(=O)c1ccc(C=NNC(=O)Cc2c[nH]c3ccccc23)cc1` [Compound 3e, 2-(1H-Indol-3-yl)-N′-(4-methylsulfonylbenzylidene)acetohydrazide] are 264 to 265 °C, 83.8 ± 6.25 µM, 2.39, 35 ± 9.9 µM and 85 ± 17.3 µM.
The corresponding values for `CC(=NNC(=O)Cc1c[nH]c2ccccc12)c1ccc(S(C)(=O)=O)cc1` [Compound 3f, 2-(1H-Indol-3-yl)-N′-[1-(4-methylsulfonylphenyl)ethylidene]acetohydrazide] are 204 to 205 °C, 93.7 ± 6.25 µM, 1.84, 51 ± 12.7 µM and less than 3.9 µM.
Regarding `CC(=NNC(=O)Cc1c[nH]c2ccccc12)c1ccc(N2CCOCC2)cc1` [Compound 3g, 2-(1H-Indol-3-yl)-N′-[1-(4-morpholinophenyl)ethylidene]acetohydrazide], the melting point lay in the range of 198 to 199 °C. Further, on COX-1, the concentration for half-maximal inhibition (IC50) came to 51 ± 1 µM and the “SI (IC50 for COX-1/IC50 for COX-2)” value is 0.97. Further, at COX-2, half-maximal inhibition (IC50) was put at 52.5 ± 0.71 µM. Also, the IC50 in data set [1] is less than 3.9 µM.
The corresponding values for `O=C(Cc1c[nH]c2ccccc12)NN=Cc1ccc(OCCN2CCOCC2)cc1` [Compound 3h, 2-(1H-Indol-3-yl)-N′-[4-(2-morpholinoethoxy)benzylidene]acetohydrazide] are 132 to 135 °C, 38.5 ± 1.5 µM, 0.76, 50.5 ± 0.7 µM and less than 3.9 µM.
The corresponding values for `Cn1cc(C=NNC(=O)Cc2c[nH]c3ccccc23)c2ccccc21` [Compound 3i, 2-(1H-Indol-3-yl)-N′-[(1-methyl-1H-indol-3-yl)methylene]acetohydrazide] are 221 to 224 °C, 31.2 ± 1.25 µM, less than 0.31, greater than 100 µM and 42.3 ± 0.58 µM.
As to `COc1ccc2[nH]cc(C=NNC(=O)Cc3c[nH]c4ccccc34)c2c1` [Compound 3j, 2-(1H-Indol-3-yl)-N′-[(5-methoxy-1H-indol-3-yl)methylene]acetohydrazide], the 50% inhibitory concentration (IC50) is greater than 100 µM at COX-1, 44.5 ± 6.36 µM against COX-2 and 43 ± 1.73 µM in data set [1]. The “SI (IC50 for COX-1/IC50 for COX-2)” value on COX-1 is greater than 2.25.
As for `O=C(Cc1c[nH]c2ccccc12)NNC(=S)Nc1ccc(C(F)(F)F)cc1` [Compound 4b, 4-(4-Trifluoromethylphenyl)-1-[2-(1H-indol-3-yl)acetyl]thiosemicarbazide], the melting point lay within 184 to 186 °C. Further, at COX-1, the IC50 is greater than 100 µM and the “SI (IC50 for COX-1/IC50 for COX-2)” value is recorded as greater than 1.63. In addition, half-maximal inhibition against COX-2 (IC50) required 61.5 ± 0.71 µM. The IC50 in data set [1] worked out at 22.7 ± 2.08 µM.
Turning to `N#Cc1ccc(NC(=S)NNC(=O)Cc2c[nH]c3ccccc23)cc1` [Compound 4c, 4-(4-Cyanophenyl)-1-[2-(1H-indol-3-yl)acetyl]thiosemicarbazide], the melting point lay within 180 to 182 °C. For the same compound, on COX-1, the IC50 is greater than 100 µM and the “SI (IC50 for COX-1/IC50 for COX-2)” value was greater than 1.77. Besides, the IC50 against COX-2 was 56.5 ± 4.49 µM. The same compound gave an IC50 in data set [1] of 26.3 ± 3.51 µM.
The corresponding values for `O=C(Cc1c[nH]c2ccccc12)NNC(=S)Nc1ccc(S(=O)(=O)N2CCCCC2)cc1` [Compound 4d, 4-[4-(Piperidin-1-ylsulfonyl)phenyl]-1-[2-(1H-indol-3-yl)acetyl]thiosemicarbazide] are 182 to 184 °C, greater than 100 µM, greater than 1.69, 59 ± 8.48 µM and 45.7 ± 6.03 µM.
In the case of `O=C(Cc1c[nH]c2ccccc12)NNC(=S)Nc1ccc(-n2cccn2)cc1` [Compound 4e, 4-[4-(1H-Pyrazol-1-yl)phenyl]-1-[2-(1H-indol-3-yl)acetyl]thiosemicarbazide], the melting point was 196 to 198 °C. At COX-1, the IC50 was greater than 100 µM and the “SI (IC50 for COX-1/IC50 for COX-2)” value is greater than 3.17. Besides, the concentration for half-maximal inhibition (IC50) against COX-2 was found to be 31.5 ± 2.12 µM. Further, the IC50 in data set [1] amounted to 62.3 ± 7.51 µM.
The corresponding values for `O=C(Cc1c[nH]c2ccccc12)NNC(=S)Nc1ccc2c(c1)OCO2` [Compound 4f, 4-(1,3-Benzodioxol-5-yl)-1-[2-(1H-indol-3-yl)acetyl]thiosemicarbazide] are 168 to 170 °C, greater than 100 µM, greater than 1.94, 51.5 ± 0.71 µM and 14 ± 5.29 µM.
The corresponding values for `O=C(Cc1c[nH]c2ccccc12)NNC(=S)Nc1ccc(OCc2ccccc2)cc1` [Compound 4g, 4-[4-(Benzyloxy)phenyl]-1-[2-(1H-indol-3-yl)acetyl]thiosemicarbazide] are 198 to 200 °C, greater than 100 µM, greater than 1.68, 59.5 ± 2.12 µM and 14 ± 3.46 µM.

The values above are taken from PMC9916685, “Discovery of Small Molecule COX-1 and Akt Inhibitors as Anti-NSCLC Agents Endowed with Anti-Inflammatory Action” (International Journal of Molecular Sciences, 2023).
